Measured values from PubChem BioAssay AID493133 (Sanford-Burnham Center for Chemical Genomics, 2011).
pEC50: −log10 of the molar value. Activity calls are given as the source filed them. How the calls were made is not given here.

Biological target: Alkaline phosphatase, tissue-nonspecific isozyme (Homo sapiens) (UniProt P05186)
Experiment: TNAP enzyme activity modulation, counter to mouse IAP activators, SAR follow-up, selectivity assay for mouse IAP activator project, biochemical (AID 493133)
Settings: purified human TNAP enzyme, phosphatase activity counter-screen

Chain of Alkaline phosphatase, tissue-nonspecific isozyme (Homo sapiens) (P05186 whole entry, looked up): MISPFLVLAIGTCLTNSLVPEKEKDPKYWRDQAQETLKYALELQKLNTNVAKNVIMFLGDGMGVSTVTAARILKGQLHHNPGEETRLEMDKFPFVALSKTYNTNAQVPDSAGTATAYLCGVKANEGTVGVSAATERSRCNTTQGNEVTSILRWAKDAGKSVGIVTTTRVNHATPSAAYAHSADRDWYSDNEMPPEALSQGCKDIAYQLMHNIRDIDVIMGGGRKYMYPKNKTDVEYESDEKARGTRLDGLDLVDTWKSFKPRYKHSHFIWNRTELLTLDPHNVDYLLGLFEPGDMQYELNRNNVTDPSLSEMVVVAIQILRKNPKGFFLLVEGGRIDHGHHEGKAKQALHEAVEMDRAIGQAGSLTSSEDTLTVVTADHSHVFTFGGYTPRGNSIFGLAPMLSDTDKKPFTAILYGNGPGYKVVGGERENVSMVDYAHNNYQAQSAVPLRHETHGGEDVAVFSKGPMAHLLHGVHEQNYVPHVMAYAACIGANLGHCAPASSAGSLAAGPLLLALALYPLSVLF

Row | SMILES | EC50 | pEC50
1 | Cc1ccc(C)c(NC(=O)CCNS(=O)(=O)c2ccc3[nH]c(=O)oc3c2)c1 | > 100 µM (inactive) | 
2 | O=C(CCNS(=O)(=O)c1ccc2[nH]c(=O)oc2c1)Nc1ccccc1 | > 100 µM (inactive) | 
3 | CCCSc1nnc(NC(=O)CSc2sc3c(O)cc(=O)[nH]c3c2C#N)s1 | > 100 µM (inactive) | 
4 | CCSc1nnc(NC(=O)CSc2sc3c(O)cc(=O)[nH]c3c2C#N)s1 | > 100 µM (inactive) | 
5 | CC(C)N1CCC(=NNC(=O)c2cc(O)c(O)c(O)c2)CC1 | > 100 µM (inactive) | 
6 | O=C(c1ccco1)N1CCN(S(=O)(=O)c2ccc3[nH]c(=O)oc3c2)CC1 | > 100 µM (inactive) | 
7 | COc1cc(C(=O)NNC(=O)C2CC2)cc(OC)c1OC | > 100 µM (inactive) | 
8 | O=C(NN=Cc1cccnc1)c1cc(O)c(O)c(O)c1 | > 100 µM (inactive) | 
9 | O=C(CN1C(=O)/C(=C/c2ccco2)SC1=S)N[C@@H]1CSC[C@@H]1O | > 100 µM (inactive) | 
10 | Cc1ccc(/C=C2\SC(=S)N(C3CCS(=O)(=O)C3)C2=O)o1 (stereo not drawn) | > 100 µM (inactive) | 
11 | CCOC(=O)N1CCC(NC(=O)CSc2sc3c(O)cc(=O)[nH]c3c2C#N)CC1 | > 100 µM (inactive) | 
12 | Cc1ccc(NC(=O)CCNS(=O)(=O)c2ccc3[nH]c(=O)oc3c2)cc1N(C)C | > 100 µM (inactive) | 
13 | N#Cc1c(SCC(=O)NCc2ccc3c(c2)OCO3)sc2c(O)cc(=O)[nH]c12 | > 100 µM (inactive) | 
14 | O=C(CN1C(=O)/C(=C/c2ccco2)SC1=S)NC1C=CS(=O)(=O)C1 (stereo not drawn) | > 100 µM (inactive) | 
15 | CC(C(=O)Nc1ccccc1C(=O)O)N1C(=O)/C(=C\c2ccco2)SC1=S (stereo not drawn) | > 100 µM (inactive) | 
16 | COc1cc(C(=O)NN=Cc2ccccn2)cc(OC)c1OC |  | 4.51
17 | COC(=O)NNC(=O)c1cc(OC)c(OC)c(OC)c1 | > 100 µM (inactive) | 
18 | CCOC(=O)N1CCN(S(=O)(=O)c2ccc3[nH]c(=O)oc3c2)CC1 | > 100 µM (inactive) | 
19 | CC(C)NC(=O)CSc1sc2c(O)cc(=O)[nH]c2c1C#N | > 100 µM (inactive) | 
20 | COc1cccc(NC(=O)CN(C)S(=O)(=O)c2ccc3[nH]c(=O)oc3c2)c1 | > 100 µM (inactive) | 

Row | SMILES | EC50 | pEC50
21 | CCOc1cccc(NC(=O)CSc2sc3c(O)cc(=O)[nH]c3c2C#N)c1 | > 100 µM (inactive) | 
22 | O=S(=O)(Nc1ncccn1)c1ccc(NC(=S)NCCC(c2ccccc2)c2ccccc2)cc1 | > 100 µM (inactive) | 
23 | O=C(CN1C(=O)/C(=C/c2ccco2)SC1=S)Nc1cccc(C(=O)O)c1 | > 100 µM (inactive) | 
24 | Cc1ccc(NC(=O)CCNS(=O)(=O)c2ccc3[nH]c(=O)oc3c2)cc1 | > 100 µM (inactive) | 
25 | COc1cc(Cl)c(C)cc1NC(=O)CSc1sc2c(O)cc(=O)[nH]c2c1C#N | > 100 µM (inactive) | 
26 | O=C(CN1C(=O)/C(=C/c2ccco2)SC1=S)NCCc1ccc(O)cc1 | > 100 µM (inactive) | 
27 | CC(C(=O)Nc1ccc(C(=O)O)c(O)c1)N1C(=O)/C(=C\c2ccco2)SC1=S (stereo not drawn) | > 100 µM (inactive) | 
28 | O=C(CN1C(=O)/C(=C/c2ccco2)SC1=S)NC1CCS(=O)(=O)C1 (stereo not drawn) | > 100 µM (inactive) | 
29 | N#Cc1c(SCC(=O)Nc2nc3ccc(Br)cc3s2)sc2c(O)cc(=O)[nH]c12 | > 100 µM (inactive) | 
30 | O=C(N/N=C/C1CC2CCC1C2)c1cc(O)c(O)c(O)c1 (stereo not drawn) | > 100 µM (inactive) | 
31 | N#Cc1cccc(NC(=O)CCNS(=O)(=O)c2ccc3[nH]c(=O)oc3c2)c1 | > 100 µM (inactive) | 
32 | Cc1cc(NC(=O)CSc2sc3c(O)cc(=O)[nH]c3c2C#N)ccc1Br | > 100 µM (inactive) | 
33 | COc1ccc(CNC(=O)CSc2sc3c(O)cc(=O)[nH]c3c2C#N)cc1OC | > 100 µM (inactive) | 
34 | COc1ccc(N2CCN(C(=O)CN3C(=O)/C(=C\c4ccco4)SC3=S)CC2)cc1 | > 100 µM (inactive) | 
35 | O=C1/C(=C/c2ccco2)SC(=S)N1C1CCS(=O)(=O)C1 (stereo not drawn) | > 100 µM (inactive) | 
36 | N#Cc1c(SCC(=O)Nc2ccccc2C(F)(F)F)sc2c(O)cc(=O)[nH]c12 | > 100 µM (inactive) | 
37 | N#Cc1c(SCC(=O)Nc2nncs2)sc2c(O)cc(=O)[nH]c12 | > 100 µM (inactive) | 
38 | COc1ccc(OC)c(NC(=O)CCNS(=O)(=O)c2ccc3[nH]c(=O)oc3c2)c1 | > 100 µM (inactive) | 
39 | COc1ccc(OC)c(NC(=O)CSc2sc3c(O)cc(=O)[nH]c3c2C#N)c1 | > 100 µM (inactive) | 

The next lines start with the values.

Row | EC50 | pEC50 | SMILES
40 | > 100 µM (inactive) |  | O=C(N/N=C/c1ccsc1)c1cc(O)c(O)c(O)c1
41 | > 100 µM (inactive) |  | COc1ccc(NC(=O)CCNS(=O)(=O)c2ccc3[nH]c(=O)oc3c2)cc1Cl
42 | > 100 µM (inactive) |  | CCOc1ccc2nc(NC(=O)CN(C)S(=O)(=O)c3ccc4[nH]c(=O)oc4c3)sc2c1
43 | > 100 µM (inactive) |  | CN(C(=O)CN1C(=O)/C(=C\c2ccco2)SC1=S)C1CCS(=O)(=O)C1 (stereo not drawn)
44 | > 100 µM (inactive) |  | CC(C)c1ccc(NC(=O)CCNS(=O)(=O)c2ccc3[nH]c(=O)oc3c2)cc1
45 | > 100 µM (inactive) |  | Cc1cc(=O)oc2cc(NC(=S)NCCC(c3ccccc3)c3ccccc3)ccc12
46 | > 100 µM (inactive) |  | Cc1ccc(NC(=O)CCNS(=O)(=O)c2ccc3[nH]c(=O)oc3c2)cc1F
47 | > 100 µM (inactive) |  | CC(C(=O)Nc1ccc(C(=O)O)cc1)N1C(=O)/C(=C\c2ccco2)SC1=S (stereo not drawn)
48 | > 100 µM (inactive) |  | O=C(CN1C(=O)/C(=C/c2ccco2)SC1=S)Nc1ccc(C(=O)O)c(O)c1
49 | > 100 µM (inactive) |  | N#Cc1c(SCC(=O)Nc2nc3ccccc3s2)sc2c(O)cc(=O)[nH]c12
50 | > 100 µM (inactive) |  | CCc1ccc(NC(=O)CN(C)S(=O)(=O)c2ccc3[nH]c(=O)oc3c2)cc1
51 | > 100 µM (inactive) |  | COc1ccc(NC(=O)CSc2sc3c(O)cc(=O)[nH]c3c2C#N)c(OC)c1
52 | > 100 µM (inactive) |  | O=C(N/N=C/C1CC=CCC1)c1cc(O)c(O)c(O)c1 (stereo not drawn)
53 | > 100 µM (inactive) |  | Cc1csc(NC(=O)CSc2sc3c(O)cc(=O)[nH]c3c2C#N)n1
54 | > 100 µM (inactive) |  | CC(C(=O)NCCc1ccc(O)cc1)N1C(=O)/C(=C/c2ccco2)SC1=S (stereo not drawn)
55 | > 100 µM (inactive) |  | CCN(CC)C(=O)CSc1sc2c(O)cc(=O)[nH]c2c1C#N
56 | > 100 µM (inactive) |  | CN1CCC(=NNC(=O)c2cc(O)c(O)c(O)c2)CC1
57 | > 100 µM (inactive) |  | O=C(N/N=C/c1ccc(F)cc1)c1cc(O)c(O)c(O)c1
58 | > 100 µM (inactive) |  | CCN(C(=O)CN1C(=O)/C(=C\c2ccco2)SC1=S)C1CCS(=O)(=O)C1 (stereo not drawn)
59 | > 100 µM (inactive) |  | O=C(CN1C(=O)/C(=C\c2ccco2)SC1=S)Nc1ccc(C(=O)O)cc1
60 |  | 4.35 | COc1ccc(NC(=S)NCCC(c2ccccc2)c2ccccc2)cc1
61 | > 100 µM (inactive) |  | CC(C(=O)Nc1cccc(C(=O)O)c1)N1C(=O)/C(=C\c2ccco2)SC1=S (stereo not drawn)
62 | > 100 µM (inactive) |  | O=C(O)CC(C(=O)O)N1C(=O)/C(=C/c2ccc(-c3nc4ccccc4s3)o2)SC1=S (stereo not drawn)
63 | > 100 µM (inactive) |  | O=C(CN1C(=O)/C(=C/c2ccco2)SC1=S)Nc1ccc(O)c(C(=O)O)c1
64 |  | 4.39 | COc1cc(C(=O)NNC(=S)NC(=O)c2ccccc2C)cc(OC)c1OC
65 | > 100 µM (inactive) |  | COc1ccccc1NC(=O)CSc1sc2c(O)cc(=O)[nH]c2c1C#N
66 | > 100 µM (inactive) |  | N#Cc1c(SCC(=O)Nc2ccc(Cl)cc2Cl)sc2c(O)cc(=O)[nH]c12

Row | EC50 | pEC50 | SMILES
67 | > 100 µM (inactive) |  | O=C(CCN1C(=O)/C(=C\c2ccco2)SC1=S)Nc1ccc(C(=O)O)c(O)c1
68 | > 100 µM (inactive) |  | O=C(CN1C(=O)/C(=C\c2ccco2)SC1=S)Nc1ccccc1C(=O)O
69 | > 100 µM (inactive) |  | COc1cccc(/C=N/NC(=O)c2cc(O)c(O)c(O)c2)c1
70 | > 100 µM (inactive) |  | CCOC(=O)NC(=O)CSc1sc2c(O)cc(=O)[nH]c2c1C#N
71 | > 100 µM (inactive) |  | O=C(CN1C(=O)/C(=C/c2ccco2)SC1=S)Nc1ccc(C(=O)O)cc1
72 | > 100 µM (inactive) |  | O=[N+]([O-])c1ccc(NC(=S)NCCC(c2ccccc2)c2ccccc2)cc1
73 | > 100 µM (inactive) |  | C/C(=N\NC(=O)c1cc(O)c(O)c(O)c1)c1ccncc1
74 | > 100 µM (inactive) |  | COc1ccccc1NC(=O)CCNS(=O)(=O)c1ccc2[nH]c(=O)oc2c1
75 | > 100 µM (inactive) |  | COc1ccc(CNC(=O)CSc2sc3c(O)cc(=O)[nH]c3c2C#N)cc1
76 | > 100 µM (inactive) |  | CCN(C(=O)C(C)N1C(=O)/C(=C/c2ccco2)SC1=S)C1CCS(=O)(=O)C1 (stereo not drawn)
77 | > 100 µM (inactive) |  | O=C(NNC(=O)c1cc(O)c(O)c(O)c1)NC1CCCCC1
78 | > 100 µM (inactive) |  | N#Cc1c(SCC(=O)Nc2ccc(C(F)(F)F)cc2)sc2c(O)cc(=O)[nH]c12
79 |  | 4.07 | FC(F)(F)c1cccc(NC(=S)NCCC(c2ccccc2)c2ccccc2)c1
80 | > 100 µM (inactive) |  | O=C(CCN1C(=O)/C(=C/c2ccco2)SC1=S)Nc1ccc(C(=O)O)c(O)c1
81 | > 100 µM (inactive) |  | O=C(CN1C(=O)/C(=C/c2ccco2)SC1=S)Nc1ccc2nccnc2c1
82 | > 100 µM (inactive) |  | O=C(CCCN1C(=O)/C(=C\c2ccco2)SC1=S)Nc1ccc(O)cc1C(=O)O
83 | > 100 µM (inactive) |  | O=C(CCNS(=O)(=O)c1ccc2[nH]c(=O)oc2c1)Nc1cccc(-c2ccno2)c1
84 | > 100 µM (inactive) |  | COc1ccc(NC(=O)C(CC(C)C)NS(=O)(=O)c2ccc3[nH]c(=O)oc3c2)cc1 (stereo not drawn)
85 | > 100 µM (inactive) |  | O=C(N/N=C/c1ccccc1F)c1cc(O)c(O)c(O)c1
86 |  | 4.25 | S=C(NCCC(c1ccccc1)c1ccccc1)Nc1ccc(Cl)cc1Cl
87 | > 100 µM (inactive) |  | CCOc1ccccc1NC(=O)CCNS(=O)(=O)c1ccc2[nH]c(=O)oc2c1
88 |  | 4.53 | COc1cc(C(=O)NNC(=S)NC(=O)c2ccc(Cl)cc2)cc(OC)c1OC
89 | > 100 µM (inactive) |  | COc1ccc(Cl)cc1NC(=O)CSc1sc2c(O)cc(=O)[nH]c2c1C#N
90 |  | 4.12 | COc1cc(C(=O)NNC(=O)c2n[nH]c3ccccc23)cc(OC)c1OC
91 | > 100 µM (inactive) |  | CCOc1ccccc1CNC(=O)CCNS(=O)(=O)c1ccc2[nH]c(=O)oc2c1
92 |  | 4.74 | COc1cc(C(=O)NNc2nc3cc4c(cc3s2)OCO4)cc(OC)c1OC
93 | > 100 µM (inactive) |  | Cc1ccc(NC(=O)CCNS(=O)(=O)c2ccc3[nH]c(=O)oc3c2)c(C)c1
